Assay [1] concerns the target T1, Bovine chymotrypsin (Bos taurus, UniProt P00766).
T1 construct: purchased Sigma-Aldrich C4129
Nature of the assay: Serine protease enzyme inhibition assay, chymotrypsin. Particulars: mean ± S.E.M. (n ≥ 3). The format is biochemical.

Assay [2] concerns fMLF/CB-activated neutrophils. Nature of the assay: O2.- generation in fMLF/CB-activated neutrophils (ferricytochrome c reduction). The format is cell-based, human. The following applies: for IC50 / IC50 O2^.− generation: fMLF/CB-activated human neutrophils; for efficacy relative to ursolic acid: fMLF-induced neutrophils. The procedure: (§1) All assays were performed as described previously[58],[59]. Neutrophils isolated from the blood of healthy volunteers (20–30 years old) were resuspended in a Ca^2+-free HBSS buffer (pH 7.4) at 4 °C before use. O2^.− generation was measured based on reduction of ferricytochrome c. In brief, after supplementation with 0.5 mg/ml ferricytochrome c and 1 mM Ca^2+, neutrophils were equilibrated at 37 °C for 2 min and incubated with the specified drugs for 5 min. Neutrophils were activated using 30 nM fMLF or 100 nM LTB4 for 10 min after addition of cytochalasin B (CB, 1 μg/mL) for 3 min. Changes in absorbance concomitant with reduction of ferricytochrome c at 550 nm were continuously monitored. For elastase release, neutrophils (6 × 10^5 cells/mL) were mixed with methoxysuccinyl-Ala-Ala-Pro-Val-pNA (100 μM) substrate at 37 °C for 5 min. […] Inhibition of superoxide generation and elastase release were calculated in keeping with previous reports.

Assay [3] has as its target Human thrombin (Homo sapiens, UniProt P00734). Nature of the assay: Serine protease enzyme inhibition assay, thrombin.
The target of assay [4] is T2, Human cathepsin G (Homo sapiens, UniProt P08311).
T2 construct: purchased Enzo BML-SE283
T2 sequence (P08311 21-255): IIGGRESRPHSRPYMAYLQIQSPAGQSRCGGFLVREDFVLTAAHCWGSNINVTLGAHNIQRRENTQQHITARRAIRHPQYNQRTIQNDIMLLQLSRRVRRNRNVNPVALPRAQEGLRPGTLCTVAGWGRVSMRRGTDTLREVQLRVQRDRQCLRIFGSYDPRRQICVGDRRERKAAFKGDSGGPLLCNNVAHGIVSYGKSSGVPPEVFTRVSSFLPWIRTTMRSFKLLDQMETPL
Nature of the assay: Serine protease enzyme inhibition assay, cathepsin G. The format is biochemical. Particulars: mean ± S.E.M. (n ≥ 3).

In assay [5] the target is T3, Human neutrophil elastase (Homo sapiens, UniProt P08246).
T3 construct: purchased Enzo BML-SE284
T3 sequence (P08246 30-267): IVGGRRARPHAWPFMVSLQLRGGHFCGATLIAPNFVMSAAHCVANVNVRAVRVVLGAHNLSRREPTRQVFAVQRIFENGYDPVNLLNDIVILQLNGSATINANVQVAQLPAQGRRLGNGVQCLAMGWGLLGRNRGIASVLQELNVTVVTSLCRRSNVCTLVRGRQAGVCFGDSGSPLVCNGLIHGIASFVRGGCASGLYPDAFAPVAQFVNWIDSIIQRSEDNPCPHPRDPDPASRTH
Nature of the assay: Serine protease enzyme inhibition assay, HNE. The format is biochemical. The following applies: for IC50: enzyme assay, mean ± S.E.M. (n ≥ 3), read-out: IC50 HNE.

Assay [6] concerns the target T4, Human proteinase 3 (Homo sapiens, UniProt P24158).
T4 construct: purchased Merk 539483
T4 sequence (P24158 28-256): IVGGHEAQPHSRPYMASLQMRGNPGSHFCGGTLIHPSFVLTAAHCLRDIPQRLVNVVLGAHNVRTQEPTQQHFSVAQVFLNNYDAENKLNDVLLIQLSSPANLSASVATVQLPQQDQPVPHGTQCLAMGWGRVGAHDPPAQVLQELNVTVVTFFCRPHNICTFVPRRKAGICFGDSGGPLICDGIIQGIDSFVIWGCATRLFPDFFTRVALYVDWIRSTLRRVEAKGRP
Nature of the assay: Serine protease enzyme inhibition assay, proteinase 3. The following applies: mean ± S.E.M. (n ≥ 3). Type of assay: biochemical.

Assay [7] concerns fMLF/CB-activated neutrophils. Nature of the assay: Elastase release in fMLF/CB-activated neutrophils. The format is cell-based. Particulars: for IC50: read-out: IC50 HNE (NE activity / elastase release). On the procedure:
as §1

Where [8] appears, read: read-out: IC50 Thrombin, enzyme assay, mean ± S.E.M. (n ≥ 3).
[9] abbreviates: fMLF/CB-activated human neutrophils.

SMILES strings stand for the structures. Like-named read-outs stand apart in the source and are kept apart here. Some results are limits rather than exact numbers.

For the compound `C[C@@H]1O[C@@H](O[C@H]2[C@H](OC(=O)[C@]34CCC(C)(C)[C@@H](O)[C@H]3C3=CC[C@@H]5[C@@]6(C)CC[C@H](O[C@@H]7OC[C@H](O)[C@H](O[C@@H]8O[C@H](CO)[C@@H](O)[C@H](O)[C@H]8O)[C@H]7O[C@@H]7O[C@@H](C)[C@H](O)[C@@H](O)[C@H]7O)C(C)(C)[C@@H]6CC[C@@]5(C)[C@]3(C)CC4)O[C@H](CO)[C@@H](O)[C@@H]2O)[C@H](O)[C@H](O)[C@H]1O` [Compound 14], the IC50 is over 30 µM in assay [1]; over 10 µM in assay [2]; over 30 µM in assay [3] (setting [8]); over 30 µM in assay [4]; over 30 µM in assay [5]; over 30 µM in assay [6]. In addition, the IC50 in assay [7] (setting [9]) was over 10 µM.
For the compound `CC1=C2C3=CCC4[C@@]5(C)CC[C@H](O)C(C)(C)C5CC[C@@]4(C)[C@]3(C)CC[C@@]2(C(=O)O)CC[C@H]1C` (stereo partly shown) [Compound 15-1, randialic acid B], the IC50 in assay [1] is 16.98 ± 0.1 µM; in assay [2] (Neutrophil), 0.14 ± 0.09 µM; in assay [3] it was 24.9 ± 1.33 µM; in assay [4], over 30 µM; in assay [5], over 30 µM; in assay [6] it was 17.44 ± 0.16 µM. Moreover, the IC50 in assay [7] (Neutrophil, fMLF/CB-activated human neutrophils) came out at 0.06 ± 0.01 µM. Moreover, the “efficacy relative to ursolic acid” value in assay [2] stood at 5 fold. The “IC50 O2^.− generation” value in assay [2] was “good inhibitory effects”. The “IC50 HNE (NE activity / elastase release)” value in assay [7] (setting [9]) is given as “good inhibitory effects”.
`CC1=C(C)C2C3=CCC4[C@@]5(C)CC[C@H](O)C(C)(C)C5CC[C@@]4(C)[C@]3(C)CC[C@@]2(C(=O)O)CC1` (stereo partly shown) [Compound 15-2, sanguisorbigenin]: the IC50 in assay [1] is 11.4 ± 0.2 µM; in assay [2] (Neutrophil) it was 0.26 ± 0.1 µM; in assay [3], 11.8 ± 2.2 µM; in assay [4], over 30 µM; in assay [5], 24.7 ± 0.48 µM; in assay [6], 14.8 ± 0.59 µM. In assay [7] (Homo sapiens, Neutrophil), the IC50 worked out at 0.2 ± 0.02 µM. Also, the “efficacy relative to ursolic acid” value in assay [2] came to 5 fold. Besides, in assay [2], the “IC50 O2^.− generation” value is “good inhibitory effects”. In assay [5] (five serine proteases examined), the “selectivity of inhibitory effect among serine proteases” value was “non-selective inhibitory effects”. The “IC50 HNE (NE activity / elastase release)” value in assay [7] (setting [9]) is given as “good inhibitory effects”.
On to `C[C@@H]1O[C@@H](O[C@H]2[C@H](OC(=O)[C@]34CC[C@@H](C)[C@@](C)(O)[C@H]3C3=CC[C@@H]5[C@@]6(C)CC[C@H](O[C@@H]7OC[C@H](O)[C@H](O[C@@H]8O[C@H](CO)[C@@H](O)[C@H](O)[C@H]8O)[C@H]7O[C@@H]7O[C@@H](C)[C@H](O)[C@@H](O)[C@H]7O)C(C)(C)[C@@H]6CC[C@@]5(C)[C@]3(C)CC4)O[C@H](CO)[C@@H](O)[C@@H]2O)[C@H](O)[C@H](O)[C@H]1O` [Compound 15], for which the IC50 is over 30 µM in assay [1]; over 10 µM in assay [2]; over 30 µM in assay [3] (setting [8]); over 30 µM in assay [4]; over 30 µM in assay [5]; over 30 µM in assay [6]. For the same compound, in assay [7] (setting [9]), the IC50 was found to be 7.99 ± 1.18 µM.
For `N#C/C=C1/C=C[C@@H](O)C[C@H]1O[C@@H]1O[C@H](CO)[C@@H](O)[C@H](O)[C@H]1O` [Compound 18, menisdaurin], the IC50 in assay [1] was over 30 µM; in assay [2], over 10 µM; in assay [3] (setting [8]) it was over 30 µM; in assay [4] it was over 30 µM; in assay [5], over 30 µM; in assay [6] it was over 30 µM. In addition, the IC50 in assay [7] (setting [9]) is over 10 µM.
On to `N#CC=C1C=CC(O)CC1OC1OC(CO)C(O)C(O)C1O` (stereo not shown) [Compound 19, menisdaurin F], for which the IC50 in assay [1] is over 30 µM; in assay [2] (Neutrophil), over 10 µM; in assay [3], over 30 µM; in assay [4], over 30 µM; in assay [5], over 30 µM; in assay [6], over 30 µM. In assay [7] (Homo sapiens, Neutrophil), the IC50 was over 10 µM.

These data come from paper PMC5041076, “Ilex kaushue and Its Bioactive Component 3,5-Dicaffeoylquinic Acid Protected Mice from Lipopolysaccharide-Induced Acute Lung Injury” (Scientific Reports, 2016).
